Measurements: patent US20030134859A1 (SANKYO COMPANY, LIMITED, priority 2000, published 2003)

Experiments:
[1] = molecular target: T1, human PPAR γ 2 (Homo sapiens, UniProt P37231); assay: PPAR γ transcriptional activity, luciferase reporter, test compound alone; assay type: cell-based; details: concentration indicating Emax/2, MG63 cells transfected with pSG5-hPPARg and pGV-P2-PPRE, 24 hr
T1 construct: expressed in transfected cells; host or cells: human osteosarcoma MG63, transiently co-transfected with pSG5-hPPARg and the reporter pGV-P2-PPRE
T1 sequence (P37231 1-505): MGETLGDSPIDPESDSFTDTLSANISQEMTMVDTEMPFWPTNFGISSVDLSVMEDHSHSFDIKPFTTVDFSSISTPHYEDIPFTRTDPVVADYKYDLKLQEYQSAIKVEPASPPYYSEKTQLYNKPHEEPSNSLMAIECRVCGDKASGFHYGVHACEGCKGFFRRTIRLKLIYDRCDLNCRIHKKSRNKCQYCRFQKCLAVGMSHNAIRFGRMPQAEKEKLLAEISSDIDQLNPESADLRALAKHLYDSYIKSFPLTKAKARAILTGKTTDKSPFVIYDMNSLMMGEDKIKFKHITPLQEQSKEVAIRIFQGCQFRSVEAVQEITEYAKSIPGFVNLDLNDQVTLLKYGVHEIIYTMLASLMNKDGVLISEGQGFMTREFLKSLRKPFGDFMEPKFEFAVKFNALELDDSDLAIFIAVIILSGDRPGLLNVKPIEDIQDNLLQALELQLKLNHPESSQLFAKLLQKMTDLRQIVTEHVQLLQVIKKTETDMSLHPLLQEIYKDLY
Protocol: The primers of the polymerase chain reaction (hereinafter “PCR”) were designed according to the gene sequence of human PPAR γ 2 (GenBANK accession No. D83233). In order to insert the genes into the BamHI site of the plasmid pSG5 ([…] CLONING SYSTEMS), Bgl II sites were added upstream and downstream of the genes encoding human PPAR γ 2 protein. For this, 2 kinds of polynucleotides shown in the sequence numbers 1 and 2 in the sequence table described below (hereinafter “S1” and “AS1”, respectively) were used as PCR primers.
In order to determine transcriptional activity via PPAR γ, 2 kinds of polynucleotides represented in sequence numbers 3 and 4 in the sequence table described below (hereinafter “S2” and “AS2”, respectively) were used for construction of the reporter plasmid having PPAR responsive element. The DNA fragment inserted was designed based on the gene sequence in the promoter region of rat acylCo-A oxidase (J. D. Tugwood, EMBO J., 11 (2), pp433-439 (1992)). For insertion of the DNA fragment into the reporter plasmid pGV-P2 (TOYO INK MFG CO., LTD), a NheI site and an XhoI site were added to the S2 and AS2, respectively.
Using cDNA library (Clontech) derived from human adipose tissue as a template, DNA oligomers S1 and AS1 that were synthesized in the procedure 1 as primers and Ex-Taq™ (TAKARA BIO INC.) as a thermostable DNA polymerase-PCR was carried out. As a result of the PCR, the c.a. 1500 bps DNA fragments were amplified. Each cycle consisted of incubation at 94° C. for 1 min for denaturation of the template, then at 55° C. for 30 sec for annealing of DNA oligomers the PCR primer, and then at 72° C. for 30 sec for extension of the chain. The obtained DNA fragments with approximately 1500 base pairs were digested at the Bgl II sites and were inserted into BamHI sites of pSG5. Thus a human PPAR γ expression plasmid named pSG5-hPPAR g was obtained. The nucleotide sequence of the inserted DNA fragment was confirmed to be identical sequence to the human PPAR γ 2 reported by the dideoxy method.
Vector pGV-P2 digestion products was prepared by digestion using the restriction enzymes, NheI and XhoI, and purified by 1.0% agarose-gel electrophoresis. The DNA oligomers, S2 and AS2 obtained in Procedure 2, were mixed together and were incubated in a hot bath at 94° C. for 1 min. After the annealing was partially broken, they were further incubated at 25° C. for 1 hr. Thus double-stranded DNA with annealing of S2 and AS2 was formed. Then, the terminus of the double-stranded DNA with annealing of S2 and AS2 was phosphorylated with DNA polynucleotide kinase (TOYOBO CO., LTD). After that, it was ligated to the pGV-P2 digestion products which were prepared previously using the NheI site and XhoI site. Thus the reporter plasmid pGV-P2-PPRE was obtained.
Using the plasmid obtained by the procedures 3 and 4, transformation of Escherichia coli HB-101 strain was carried out by conventional methods. HB-101 strain having the plasmid was incubated in L-broth medium (containing 10 g of trypton (Difco), 5 g of yeast extract (Difco), 5 g of sodium chloride in 1 L of aqueous solution) containing 100 μg/ml of ampicillin at 37° C. for 17 hrs. Then, each plasmid was purified by the alkaline-SDS method and employed for the gene transfection to mammalian cells. After mixing the pSG5-hPPARg, PGV-P2-PPRE and LipofectAMINE reagent (GIBCO BRL), the human osteosarcoma MG63 was transiently transfected. Then the cells were recovered. The recovered cells were plated on a 96-well plate so as to be 30,000 cells/well and cultured in a CO2 incubator (NAPCO) at 37° C. for 24 hr under the condition of 5% CO2, 95%-RH.
Various concentrations of the test compound alone were added to culturing medium of the cells prepared in the Procedure 5. After 24 hr of culturing, LT2.0 (TOYO INK MFG CO., LTD), a luciferase substrate, was added to the medium free culture plate. […]

[2] = molecular target: T1, human PPAR γ 2; assay: Inhibitory activity against PPAR γ transcription in the presence of agonist compound A, luciferase reporter; assay type: cell-based; details: in the presence of 10 nM compound A (agonist); MG63 cells transfected with pSG5-hPPARg and pGV-P2-PPRE; 24 hr

Work on `Cc1ccc(NC(=O)c2cc([N+](=O)[O-])ccc2Cl)cc1` [Example 1, N-(4-Methylphenyl)-(2-chloro-5-nitrophenyl)carboxamide] yielded an EC50 [1] of 220 nM and an IC50 [2] of 33 nM.
Work on `O=C(Nc1ccc(-c2ccccc2)cc1)c1cc([N+](=O)[O-])ccc1Cl` [Example 2, N-(4-Phenylphenyl)-(2-chloro-5-nitrophenyl)carboxamide] yielded an EC50 [1] of 840 nM and an IC50 [2] of 1.9 nM.
Work on `Cc1cnc(NC(=O)c2cc([N+](=O)[O-])ccc2Cl)s1` [Example 4, N-(5-Methylthiazol-2-yl)-(2-chloro-5-nitrophenyl)carboxamide] yielded an EC50 [1] of 15 nM and an IC50 [2] of 120 nM.
Compound `O=C(Nc1cccc(-c2ccccc2)c1)c1cc([N+](=O)[O-])ccc1Cl` [Example 5, N-(3-Phenylphenyl)-(2-chloro-5-nitrophenyl)carboxamide] has an EC50 [1] of 400 nM and an IC50 [2] of 82 nM.
Compound `COc1ccc(NC(=O)c2cc([N+](=O)[O-])ccc2Cl)cc1-c1ccccc1` [Example 6, N-(4-Methoxy-3-phenyl)phenyl-(2-chloro-5-nitrophenyl)carboxamide] has an EC50 [1] of 34 nM and an IC50 [2] of 160 nM.
With `O=C(Nc1ccccc1-c1ccccc1)c1cc([N+](=O)[O-])ccc1Cl` [Example 7, N-(2-Phenylphenyl)-(2-chloro-5-nitrophenyl)carboxamide] the EC50 [1] was 270 nM.
`O=C(Nc1ccc(-c2ccccn2)cc1)c1cc([N+](=O)[O-])ccc1Cl` [Example 8, N-[4-(2-Pyridyl)phenyl]-(2-chloro-5-nitrophenyl)carboxamide] was tested, and the EC50 [1] was 260 nM and the IC50 [2] was 5.9 nM.
In the case of `CCCCCc1ccc(NC(=O)c2cc([N+](=O)[O-])ccc2Cl)cc1` [Example 16, N-(4-Pentylphenyl)-(2-chloro-5-nitrophenyl)carboxamide], the EC50 [1] is reported as 34 nM and the IC50 [2] is reported as 7.5 nM.
In the case of `CCOC(=O)c1ccc(NC(=O)c2cc([N+](=O)[O-])ccc2Cl)cc1` [Example 26, N-(4-Ethoxycarbonylphenyl)-(2-chloro-5-nitrophenyl)carboxamide], the EC50 [1] is reported as 2.1 nM and the IC50 [2] is reported as 6.3 nM.
For `CC(C)(C)c1cc(NC(=O)c2cc([N+](=O)[O-])ccc2Cl)cc(C(C)(C)C)c1O` [Example 29, N-(3,5-Di-t-butyl-4-hydroxyphenyl)-(2-chloro-5-nitrophenyl)carboxamide], the EC50 [1] was 4.4 nM and the IC50 [2] was 230 nM.
`O=C(Nc1cccc(NS(=O)(=O)c2ccccc2)c1)c1cc([N+](=O)[O-])ccc1Cl` [Example 30, N-(3-Benzensulfonylaminophenyl)-(2-chloro-5-nitrophenyl)carboxamide] was tested, and the EC50 [1] was 1.9 nM and the IC50 [2] was 12 nM.
`O=C(Nc1nc(-c2ccccc2)cs1)c1cc([N+](=O)[O-])ccc1Cl` [Example 35, N-(4-Phenylthiazol-2-yl)-(2-chloro-5-nitrophenyl)carboxamide] was tested, and the EC50 [1] was 25 nM and the IC50 [2] was 30 nM.
In the case of `O=C(Nc1nc(-c2cccnc2)cs1)c1cc([N+](=O)[O-])ccc1Cl` [Example 37, N-[4-(3-Pyridyl)thiazol-2-yl)-(2-chloro-5-nitrophenyl)carboxamide], the EC50 [1] is reported as 510 nM and the IC50 [2] is reported as 15 nM.
In the case of `O=C(Nc1nc(-c2ccccn2)cs1)c1cc([N+](=O)[O-])ccc1Cl` [Example 38, N-[4-(2-Pyridyl)thiazol-2-yl)-(2-chloro-5-nitrophenyl)carboxamide], the EC50 [1] is reported as 250 nM and the IC50 [2] is reported as 45 nM.
For `O=C(Nc1cccc2cccnc12)c1cc([N+](=O)[O-])ccc1Cl` [Example 57, N-(8-Quinolinyl)-(2-chloro-5-nitrophenyl)carboxamide], the EC50 [1] was 260 nM.
`COC(=O)c1sccc1NC(=O)c1cc([N+](=O)[O-])ccc1Cl` [Example 66, N-(2-Methoxycarbonylthiophen-3-yl)-(2-chloro-5-nitrophenyl)carboxamide] showed an EC50 [1] of 120 nM.
With `CCCCCCCCN(CC)c1ccc(-c2ccc(NC(=O)c3cc([N+](=O)[O-])ccc3Cl)cc2)cc1` [Example 225, N-[4-[4-(N-Ethyl-N-octylamino)phenyl]phenyl]-(2-chloro-5-nitrophenyl)carboxamide] the IC50 [2] was 190 nM.
Compound `O=C(Nc1ccc(N2CCN(C(=O)c3ccncc3)CC2)cc1)c1cc([N+](=O)[O-])ccc1Cl` [Example 228, N-[4-[4-(Pyridin-4-ylcarbonyl)piperazin-1-yl]phenyl]-(2-chloro-5-nitrophenyl)carboxamide] has an IC50 [2] of 130 nM.
In the case of `O=C(Nc1ccc(CCO)cc1)c1cc([N+](=O)[O-])ccc1Cl` [Example 230, N-[4-(2-Hydroxyethyl)phenyl]-(2-chloro-5-nitrophenyl)carboxamide], the IC50 [2] is reported as 19 nM.
Work on `O=C(Nc1ccc(-n2ccnc2)cc1)c1cccc(NC(=O)c2cc([N+](=O)[O-])ccc2Cl)c1` [Example 231, N-[[3-[4-(Imidazol-1-yl)phenyl]aminocarbonyl]phenyl]-(2-chloro-5-nitrophenyl)carboxamide] yielded an IC50 [2] of 60 nM.
`Nc1nc(-c2cccc(NC(=O)c3cc([N+](=O)[O-])ccc3Cl)c2)cs1` [Example 233, N-[3-(2-Amiothiazol-4-yl)phenyl]-(2-chloro-5-nitrophenyl)carboxamide] gave an IC50 [2] of 28 nM.
`CC(C)(C)OC(=O)Nc1cccc(-c2csc(NC(=O)c3cc([N+](=O)[O-])ccc3Cl)n2)c1` [Example 234, N-[4-(3-tert-Butoxycarbonylaminophenyl)thiazol-2-yl]-(2-chloro-5-nitrophenyl)carboxamide] gave an IC50 [2] of 19 nM.
For `CS(=O)(=O)N(c1ccc(-c2ccc(NC(=O)c3cc([N+](=O)[O-])ccc3Cl)cc2)cc1)S(C)(=O)=O` [Example 235, N-[4-[4-(N,N-Dimethanesulfonylamino)phenyl]phenyl]-(2-chloro-5-nitrophenyl)carboxamide], the IC50 [2] was 19 nM.
`O=C(Nc1ccc(-c2ccc(NC(=S)Nc3ccncc3)cc2)cc1)c1cc([N+](=O)[O-])ccc1Cl` [Example 258, N-[4-[4-[(Pyridin-4-yl)aminothiocarbonylamino]phenyl]phenyl]-(2-chloro-5-nitrophenyl)carboxamide] was tested, and the IC50 [2] was 25 nM.
In the case of `NCCc1ccc(NC(=O)c2cc([N+](=O)[O-])ccc2Cl)cc1` [Example 267, N-[4-(2-Aminoethyl)phenyl]-(2-chloro-5-nitrophenyl)carboxamide], the IC50 [2] is reported as 60 nM.
For `O=C(Nc1ccc(CCNC(=S)Nc2cccnc2)cc1)c1cc([N+](=O)[O-])ccc1Cl` [Example 273, N-[4-[2-(Pyridin-3-yl)aminothiocarbonylaminoethyl]phenyl]-(2-chloro-5-nitrophenyl)carboxamide], the IC50 [2] was 13 nM.
